Each structure is given as a SMILES string. Values joined by “and” are separate entries in the source; they are usually repeats but may differ in a detail not shown here. Equal entries are not always repeated.

In assay [1] the test system is irradiated (490 rads) C3H/HeN mice with infected subcutaneous pouch. Kind of assay: Immunocompromised mouse model of contained infection: ceftriaxone treatment, spleen CFU at death and survival. Conditions: Ceftriaxone 0.3 mg/mouse daily. The format is in vivo. From the text: In order to test therapies intended at controlling systemic inflammatory response rather than the infection, it is desirable to control the infection to avoid problems that can derive from a high bacterial load. To this end we controlled the infection by using antibiotics. In this experiment, a subcutaneous pouch was induced in C3H/HeN animals. […] At Day 6 after induction of the pouches, mice were infected with 4.5×10^6 CFU/mouse. As animals became sick (as detected by a ruffled fur), each animal was assigned to one of two different groups, i.e. a group to be treated with 0.3 mg/mouse of ceftriaxone and a group to stay untreated. […] Once an animal was assigned to the treated group, it received a daily injection of antibiotic until the animal succumbed to death. […] At death, spleens were removed from the animals, homogenized in PBS, and the CFU determined.
The bacterial counts in the spleens of treated animals are about 3 logs of magnitude lower than in the untreated animals. The conditions employed should therefore be useful for testing therapies to prevent the progression from sepsis to septic shock in the absence of overwhelming bacterial infection.

Assay [2] relates to irradiated C3H/HeN mice infected with E. coli strain Bort. Kind of assay: VEGF receptor antagonists (Compounds I and II): survival, bacterial counts, time of euthanasia. The format is in vivo, mouse. Particulars: for Bacterial counts: blood bacterial count of individual animal bled at 40 hours after infection, 100 mg/Kg injected 16 hours after infection, FD given where no count; for Bacterial counts / Time of Death: 100 mg/kg; for Status: individual animal survival status code (1 or 0, not defined; 0 only at 168); for Time of Death: individual animal, time of death/euthanasia (hours after infection), 100 mg/Kg, ceftriaxone 50 ug/mouse at 40 hours. As to the method: (§1) Mice were pouched six days and irradiated five days before infection. Eight- to 12-week-old C3H/HeN mice were anesthetized with isofluorane and wiped with alcohol in the area caudal to their ears. Pouches were created at this site by subcutaneous injection of 2-3 ml of air, followed by the subcutaneous injection of 0.2 ml of a 0.5% solution of croton oil in olive oil. Twenty-four hours later, mice were irradiated using a gamma irradiator. Five days after irradiation, animals were infected with E. coli strain Bort by direct injection of the bacterial suspension into the pouches. After infection, animals were treated as described for each individual experiment. Animals were checked daily for signs of pain and distress, including diarrhea, lethargy, ruffled fur, lack of appetite, and poor body condition. Animals were euthanized when they became very lethargic and unable to move when touched. It was previously determined that when mice reach such conditions they will die within 6-8 hours.
Using the procedure described above, 76 mice were pouched, irradiated (495 rads) and infected (0.2 ml of 0.1 OD 600).
(II) (see WO 98/13354 and WO 00/132651). At 40 hours after infection, animals were bled and injected with the same solutions to which ceftriaxone was added to yield a solution containing 50 ug/mouse. Animals were injected with the solutions (no ceftriaxone) for 2 more days. Blood was used for BC and plasma. Two aliquots of 20 ul and an extra aliquot were prepared and stored at −80.

Assay [3] shares this test system. Kind of assay: Ethyl pyruvate plus ceftriaxone, survival in immunocompromised infected mouse model. Particulars: for Bacterial counts / Status / Status.dead / Time death: one animal per row, listed as EP; for Status: 1 = dead, 0 = alive. The format is in vivo. As to the method:
as §1, with “touched.” for “touched. It was previously determined that when mice reach such conditions they will die within 6-8 hours.”
Mice were pouched and irradiadiated as described above. The mice were assigned to four different groups: (1) ten mice were untreated (control mice); (2) nineteen mice were treated with 0.1 mg/mouse of ceftriaxone (CEF) once every 24 hours […] (saline control mice); (3) twenty mice were treated with 0.1 mg/mouse ceftriaxone and 35 mg/ml ethyl pyruvate once every 24 hours for four days (EP mice); and (4) ten mice were treated as for group (3) and received an additional injection of 35 mg/ml of EP at 30 and 54 hour timepoints (EP 2x mice).

Consider `CO/N=C(\C(=O)N[C@@H]1C(=O)N2C(C(=O)O)=C(CSc3nc(=O)c(=O)[nH]n3C)CS[C@H]12)c1csc(N)n1` [Ceftriaxone, ceftriaxone], for which the “CFU/spleen, Average” value in assay [1] (average of treated animals) came to 7.01E+05 CFU/spleen. In addition, the CFU/spleen in assay [1] (spleens removed at death, single animals) was 2.60E+04 CFU/spleen and 3.00E+03 CFU/spleen and 8.00E+03 CFU/spleen and 8.00E+05 CFU/spleen (2×) and 1.80E+04 CFU/spleen and 6.00E+02 CFU/spleen and 1.20E+04 CFU/spleen and 2.00E+03 CFU/spleen and 4.00E+04 CFU/spleen and 6.00E+06 CFU/spleen.
With `CC(C)(N)c1ccc(-c2nc(Nc3ccc(CCN4CCOCC4)cc3)ncc2C#N)cc1` [Compound I], in assay [2], the Bacterial counts was 1.3E+07 and 4.0E+06 and 3.0E+06 and 2.0E+06 and 1.0E+06 and 3.0E+05 (3×) and 2.0E+05 (2×) and 3.0E+04 and 1.7E+03 and 1.0E+03 and 1.0E+02 (5×) and <100 (7×); the Status was 1 (27×) and 0; the “Time of Death” value was 40 (3×) and 46 (5×) and 48 (4×) and 64 and 88 and 94 and 112 (8×) and 160 and 96 (3×) and 168.
Regarding `CCOC(=O)C(C)=O` [ethyl pyruvate], the “survival relative to nontreated or CEF-treated controls” value in assay [3] (35 mg/ml ethyl pyruvate with 0.1 mg/mouse ceftriaxone, every 24 hours for four days (EP) or with extra doses at 30 and 54 h (EP 2x)) is “significant survival advantage”. In addition, the “Bacterial counts” value in assay [3] (Group 3 (EP mice): 0.1 mg/mouse ceftriaxone and 35 mg/ml ethyl pyruvate once every 24 hours for four days) was 1.0E+04 and 3.0E+04 and 1.2E+05 and 2.0E+05 (3×) and 3.0E+05 (2×) and 1.3E+04 and 2.5E+04 and 3.5E+04 and 6.5E+04 and 7.6E+04 and 8.0E+04 and 1.2E+04 and 2.0E+03 and 1.6E+03 (2×) and 1.6E+04 and 4.0E+04. Moreover, in assay [3] (Group 3 (EP mice)), the Status is 1 (19×) and 0; the Status.dead result was “DEAD (19×) and ALIVE”; the Time death is 48 (6×) and 54 (8×) and 56 and 78 and 102 and 168 and 174 (2×). Besides, the “Bacterial counts” value in assay [3] (Group 4 (EP 2x mice): as group 3 plus additional 35 mg/ml EP at 30 and 54 hour timepoints) is 2.0E+05 and 5.0E+04 (2×) and 3.0E+04 (2×) and 1.0E+04 and 1.7E+03 and 0.0E+00 and 1.0E+03 and 2.4E+03. In assay [3] (Group 4 (EP 2x mice)), the Status was 1 (7×) and 0 (3×); the Status.dead entry was “DEAD (7×) and ALIVE (3×)”; the Time death is 48 and 54 and 62 and 72 and 96 and 168 (2×) and 174 (3×).
`COc1cc2c(Nc3ccc(Br)cc3F)ncnc2cc1OCC1CCN(C)CC1` [Compound II]: in assay [2], the Bacterial counts is 1.0E+09 and 1.0E+07 and 9.0E+06 and 3.0E+06 and 2.0E+06 (3×) and 5.0E+05 and 3.0E+05 (2×) and 5.0E+04 and 3.0E+04 and 1.6E+04 and 2.0E+03 and 1.0E+02 (2×) and <100 (9×); the Status is 1 (23×) and 0 (4×); the “Time of Death” value is 40 (2×) and 46 (4×) and 48 (7×) and 64 (4×) and 160 (3×) and 112 (3×) and 168 (4×).

The record behind these values is patent US20070083333A1, “Modeling of systemic inflammatory response to infection” (priority 2003, published 2007).
